From patent US20100004234A1, “SPECIFIC KINASE INHIBITORS” (Kosan Biosciences Incorporated, priority 2004, published 2010)

Target: ERK2 (UniProt P28482)
Type: biochemical
Parameters: "the target Cys 172 residue
Conditions: Table 7
Procedure: In either case, the time dependent inactivation can be dampened by the presence of a competing substrate, in this case ATP.
For covalent inhibitors, plots of log (activity) versus time provide apparent first-order rate constants (kobsd) of enzyme activity loss. If these assays are performed at varying concentrations of inhibitor, a series of first-order plots is obtained and kobsd obtained at each inhibitor concentration. […] Such molecules may be competitive inhibitors but should not show time-dependent inactivation.
Inhibition progress curve analysis was performed using continuous, colorimetric, or fluorimetric assays. All experiments were done at 1 mM ATP, with the exception of KDR (at 5 mM ATP).
MEK1 assays were performed using pre-incubation experiments with radioactive [^32P]ATP and filter binding of product. All other kinases were analyzed using progress curve analysis from a continuous spectrophotometric assay.

## COc1cc(O)c2c(c1)[C@H]1O[C@@H]1C[C@H](O)[C@H](O)C(=O)/C=C\C[C@H](C)OC2=O [Hypothemycin, hypothemycin]
  ERK2 Inhibition kinact.: 5 ± 2 × 10^−3 sec^−1
read-out: ERK2 Inhibition Ki
  Ki: 1900 ± 1100 nM
